“Also recorded” adds a separate entry of the source.
Key:
[1] = test system: Thioacetamide (TAA)-Induced Fibrosis; test: Thioacetamide (TAA)-induced fibrosis, model for hepatic cirrhosis; assay type: in vivo; conditions: 5 mg/kg co-administered with TAA, 10 weeks, Wistar rats
Protocol: Liver fibrosis was induces in Wistar rats by intraperitoneal injections of TAA […] body weight) twice per week during 10 weeks. I.p. application of TAA results in hepatic centrolobular necrosis, elevated transaminase activity and robust liver fibrosis. Treatment groups further included co-administration of Aramchol (1 or 5 mg/kg orally) or obaticholic acid (OCA, 5 mg/kg). A control group of saline-treated rats (in the absence of TAA administration) was further included. Rats were then sacrificed, and livers were observed macroscopically for signs of cirrhosis and necrotic lesions, and microscopically, following Masson Goldner staining. The fibrosis score, calculated at a scale of 0-4, was determined for each sample, wherein 0 indicates no fibrosis and 4 indicates advanced fibrosis and cirrhosis.

[2] = test system: COL1A1; test: COL1A1 expression in LX-2 human hepatic stellate cells; assay type: cell-based; conditions: LX-2 cells, Aramchol 10 mM, 24 hours, RNA
Protocol: (§1) LX2 cells (150.000 cells per well) were plated in DMEM media containing antibiotics, glutamine and bovine fetal serum. After 24 hours incubation, media was changed to 0% serum and incubated for an additional period of 16 hours. Then, Aramchol (10 mM) was added and 24 hours later RNA was extracted with Trizol.

[3] = test system: PPAR-γ; test: PPAR-γ expression in LX-2 human hepatic stellate cells; assay type: cell-based; conditions: LX-2 cells, Aramchol 10 mM, 24 hours, RNA
Protocol: as §1

[4] = test system: LX-2 human hepatic stellate cells; test: Collagen production from LX-2 human hepatic stellate cells; assay type: cell-based; conditions: LX-2 cells, relative to a DMSO control
[5] = test system: 0.1 MCD diet mouse model of NASH; test: 0.1% methionine- and choline-deficient (0.1 MCD) diet mouse model of NASH; assay type: in vivo, C57B1/6 mice; conditions: 5 mg/Kg/day orally by gavage, 0.1 MCD-fed mice
Source text: The study described below investigates the mechanism of action of Aramchol and its potential effect on fibrosis using the 0.1% methionine- and choline-deficient (0.1 MCD) diet mouse model of NASH.
C57B1/6 were fed the Methionine and Choline Deficient (MCD) and control diet and were sacrificed after 4 weeks. The MCD diet induces aminotransferase elevation and changes in hepatic histological features, characterized by steatosis, local inflammation, hepatocyte necrosis and fibrosis. These changes occur rapidly and are morphologically similar to those observed in human NASH. In this study the MCD diet contained 0.1% methionine to minimize and stabilize weight loss. At the end of the second week, after verification of established NASH, 0.1 MCD-fed mice were treated orally by gavage with Aramchol (5 mg/Kg/day) or vehicle (n=10, each condition). Control diet-fed mice were also treated with vehicle for same duration (n=10). At the end of the experiment, blood and liver samples were obtained. A diagram of the experimental design is shown below: […]

## CCCCCCCCCCCCCCCCCCCC(=O)N[C@H]1CCC2(C)C(CC(O)C3C2C[C@H](O)C2(C)C(C(C)CCC(=O)O)CCC32)C1 (stereo in doubt) [Aramchol, 3β-arachidylamido-7α, 12α-dihydroxy-5β-cholan-24-oic acid]
[1]
  TAA induced fibrosis: significantly prevented; also recorded: significantly inhibited
  collagen distribution in the tissue (FIG. 2): reduced significantly
  development of necrosis and cirrhosis (macroscopic, FIG. 1): reduced significantly; also recorded: significantly inhibited
  fibrotic score (Masson Goldner staining, scale 0-4, FIG. 2): reduced significantly
[2]
  COL1A1 expression: significantly reduced
[3]
  PPARγ expression: up-regulation
[4]
  collagen production: significantly down regulates
[5]
  FA(16:1)/FA(16:0) ratio: marked decrease
  SCD1 activity: reduced
  SCD1 expression: marked decrease
  content of total oxFA including oxLA: marked reduction
  hepatic content of diglycerides (DG) and TG: reduction
  oxidative stress: improved
  total content of monounsaturated FA (MUFA): marked decrease
[5]; from end of week 2 to week 4
  fibrosis in the liver (sirius red): significantly down regulates/normalizes; also recorded: reduction
  infiltration and activation status of macrophages in the liver (F4/80 and CD64): significantly down regulates/normalizes; also recorded: reduction
  steatosis in the liver (Sudan III): significantly down regulates; also recorded: reduction
[5]; liver
  GSH/GSSG ratio: elevates; also recorded: normalization
  glutathione: significantly up regulates
[5]; liver extract
  collagen in the liver: significantly down regulates

From patent publication US20190275061A1, “INHIBITION OF FIBROSIS IN NON ALCOHOL FATTY LIVER DISEASE PATIENTS” (GALMED RESEARCH AND DEVELOPMENT LTD, priority 2016, published 2019)
